Data published in PMC5995653 (Journal of pharmacological and toxicological methods, 2018).
Like-named read-outs stand apart in the source and are kept apart here.

Tests used:
[1] = target: T1, hSERT (Homo sapiens, UniProt P31645); experiment: SERT reuptake inhibition in transfected hSERT-HEK293 cells; type: cell-based; conditions: unpublished results of the authors' group
[2] = target: T1, hSERT; conditions: read-out: Reuptake inhibition activity IC50, hSERT, JAR cells
[3] = target: T1, hSERT; conditions: read-out: Reuptake inhibition activity IC50, hSERT-HEK293 cells; cited from earlier work
[4] = target: rSERT (Rattus norvegicus, UniProt P31652); conditions: read-out: Ki, rSERT, synaptosomes; cited from earlier work
Chain of rSERT (P31652 whole entry): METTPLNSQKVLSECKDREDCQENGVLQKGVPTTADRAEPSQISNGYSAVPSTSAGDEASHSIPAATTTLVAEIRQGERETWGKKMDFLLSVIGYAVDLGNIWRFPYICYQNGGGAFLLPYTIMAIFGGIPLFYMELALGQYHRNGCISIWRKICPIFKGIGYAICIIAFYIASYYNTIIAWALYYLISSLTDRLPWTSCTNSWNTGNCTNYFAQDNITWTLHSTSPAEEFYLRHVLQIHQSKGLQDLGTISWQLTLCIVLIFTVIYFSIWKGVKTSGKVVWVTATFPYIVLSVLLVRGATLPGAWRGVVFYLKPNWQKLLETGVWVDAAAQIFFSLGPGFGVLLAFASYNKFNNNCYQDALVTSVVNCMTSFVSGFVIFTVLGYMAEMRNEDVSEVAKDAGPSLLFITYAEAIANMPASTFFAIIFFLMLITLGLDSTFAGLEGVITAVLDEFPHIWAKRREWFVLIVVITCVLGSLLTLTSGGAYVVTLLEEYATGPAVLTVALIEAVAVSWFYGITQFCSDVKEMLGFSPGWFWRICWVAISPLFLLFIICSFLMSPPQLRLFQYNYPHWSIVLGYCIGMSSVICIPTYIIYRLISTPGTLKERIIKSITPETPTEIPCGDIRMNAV

T1 sequence (P31645 whole entry): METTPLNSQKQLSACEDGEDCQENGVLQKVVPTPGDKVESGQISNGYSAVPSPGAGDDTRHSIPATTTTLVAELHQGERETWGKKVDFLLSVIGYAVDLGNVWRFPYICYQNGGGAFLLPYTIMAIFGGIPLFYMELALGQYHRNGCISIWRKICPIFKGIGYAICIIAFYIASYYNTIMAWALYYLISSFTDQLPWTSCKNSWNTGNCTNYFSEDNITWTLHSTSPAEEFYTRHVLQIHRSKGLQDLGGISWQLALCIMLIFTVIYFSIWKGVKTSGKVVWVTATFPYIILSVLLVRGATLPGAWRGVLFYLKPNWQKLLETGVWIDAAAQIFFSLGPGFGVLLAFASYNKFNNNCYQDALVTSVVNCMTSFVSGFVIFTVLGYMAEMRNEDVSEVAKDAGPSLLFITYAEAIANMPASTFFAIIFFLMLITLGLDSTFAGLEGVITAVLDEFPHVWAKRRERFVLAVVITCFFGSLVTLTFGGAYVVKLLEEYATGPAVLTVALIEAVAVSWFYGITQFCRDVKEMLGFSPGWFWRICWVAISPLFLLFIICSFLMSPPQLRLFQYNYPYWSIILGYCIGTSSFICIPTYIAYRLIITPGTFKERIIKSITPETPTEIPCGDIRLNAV

In the case of `Fc1ccc(C(OCCN2CCN(CCCc3ccccc3)CC2)c2ccc(F)cc2)cc1` [GBR12909], the “Activity in hSERT-HEK293 cells (in words)” value [1] is reported as “inactive”.
In the case of `COC(=O)[C@H]1C(c2ccc(I)cc2)C[C@@H]2CC[C@H]1N2C` (stereo partly drawn) [RTI-55], the IC50 [2] is listed as 1.31 ± 0.1 nM, the IC50 [3] is listed as 0.51 ± 0.14 nM and the Ki [4] is listed as 1 nM.
For `CN1[C@H]2CC[C@@H]1[C@@H](C(=O)N1CCCC1)[C@@H](c1ccc(I)cc1)C2` [RTI-229], the IC50 [2] is listed as 589 ± 42 nM and the Ki [4] is listed as 362 nM.
